How the values were obtained:
[1] = target: T1, indoleamine 2,3-dioxygenase (IDO) (Homo sapiens, UniProt P14902); assay: HeLa cell-based indoleamine 2,3-dioxygenase (IDO) assay (IFNγ-induced kynurenine production, absorbance 480 nm); details: HeLa cells, IFNγ 25 ng/mL, 48 hour incubation
T1 construct: host or cells: HeLa cells treated with IFNγ (25 ng/mL)
Method: Assessment of inhibitor activity in HeLa cell-based indoleamine 2,3-dioxygenase (IDO) assay:
HeLa (ATCC® CCL-2) cells were obtained from the ATCC® and cultured in Dulbecco's Modified Eagle Medium supplemented with 4.5 g/L glucose, […] L-glutamine and […] (#10-013-CV, Corning), 2 mM L-alanyl-L-glutamine dipeptide (#35050-061, Gibco), 100U/mL penicillin, 100 μg/mL stroptomycin (#SV30010. HyClone) and 10% fetal bovine serum (#SH30071.03 HyClone). Cells were maintained in a humidified incubator at 37° C. in 5% CO2.
IDO activity was assessed as a function of kynurenine production as follows: HeLa cells were seeded in a 96-well culture plate at a density of 5,000 cells/well and allowed to equilibrate overnight. After 24 hours, the media was aspirated and replaced with media containing IFNγ (#285-IF/CF, R&D Systems) at a final concentration of 25 ng/mL. A serial dilution of each test compound was added to the cells in a total volume of 200 μL of culture medium. After a further 48 hour incubation, 170 μL of supernatant was transferred from each well to a fresh 96-well plate, 12.1 μL of 6.1N trichloroacetic acid (#T0699, Sigma-Aldrich) was added to each well and mixed, followed by incubation at 65° C. for 20 minutes to hydrolyze N-formylkynurenine, the product of indoleamine 2,3-dioxygenase, to kynurenine. The reaction mixture was then centrifuged for 10 mins at 500×g to sediment the precipitate. 100 μL of the supernatant was transferred from each well to a fresh 96-well plate. 100 μl of 2% (w/v) p-dimethylaminobenzaldehyde (#15647-7, Sigma-Aldrich) in acetic acid (#A6283, Sigma-Aldrich) was added to each well mixed and incubated at room temperature for 20 mins. Kynurenine concentrations were determined by measuring absorbance at 480 nm and calibrating against an L-kynurenine (#K8625, Sigma-Aldrich) standard curve using a SPECTRAMAX® M2e microplate reader (Molecular Devices). The percentage activity at each inhibitor concentration was determined and IC50 values assessed using nonlinear regression.

human IDO1 = target: T2, human IDO1 (Homo sapiens, UniProt P14902); assay: IDO inhibition assay in HEK293 cells stably expressing human IDO1 (kynurenine, Ehrlich reagent, absorbance 490 nm); format: cell-based; details: 20 hours incubation, read-out: IDO1 HEK Human IC50
T2 construct: expressed in transfected cells
Method: HEK293 cells were transfected with a pCDNA-based mammalian expression vector harboring human IDO1 cDNA (NM 002164.2) by electroporation. They were cultured in medium (DMEM with 10% FBS) containing 1 mg/ml G418 for two weeks. Clones of HEK293 cells that stably expressed human IDO1 protein were selected and expanded for IDO inhibition assay. The human IDO1/HEK293 cells were seeded at 10,000 cells per 50 μL per well with RPMI/phenol red free media contains 10% FBS in a 384-well black wall clear bottom tissue culture plate (Matrix Technologies LLC) 100 nL of certain concentration of compound was then added to each well using ECHO liquid handling systems. The cells were incubated for 20 hours in 37° C. incubator with 5% CO2. The compound treatments were stopped by adding trichloroacetic acid (Sigma-Aldrich) to a final concentration at 0.2%. The cell plate was further incubated at 50° C. for 30 minute. The equal volume supernatant ([…]) and 0.2% (w/v) Ehrlich reagent (4-dimethylaminobenzaldehyde, Sigma-Aldrich) in glacial acetic acid were mixed in a new clear bottom 384-well plate. This plate was then incubated at room temperature for 30 minute. The absorbance at 490 nm was measured on Envision plate reader. Compound IC50 values were calculated using the counts of 500 nM of a reference standard treatment as one hundred percent inhibition, and counts of no compound but DMSO treatment as zero percent inhibition.

T2 sequence (P14902 whole entry): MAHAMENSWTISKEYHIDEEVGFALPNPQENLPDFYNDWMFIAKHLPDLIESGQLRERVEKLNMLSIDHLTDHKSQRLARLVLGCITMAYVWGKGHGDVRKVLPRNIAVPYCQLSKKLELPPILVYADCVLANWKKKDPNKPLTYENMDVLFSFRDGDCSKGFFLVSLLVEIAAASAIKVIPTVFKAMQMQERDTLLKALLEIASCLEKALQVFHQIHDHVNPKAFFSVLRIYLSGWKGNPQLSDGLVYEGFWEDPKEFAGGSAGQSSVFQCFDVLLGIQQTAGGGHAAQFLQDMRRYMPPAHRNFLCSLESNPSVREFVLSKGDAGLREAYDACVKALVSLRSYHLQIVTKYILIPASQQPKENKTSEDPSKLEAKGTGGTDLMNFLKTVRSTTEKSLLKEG
T1 sequence (P14902 whole entry): as above

Row | Structure (SMILES) | IC50 [1] [nM] | IC50 (human IDO1) [nM]
1 | C[C@@H](c1nnc(-c2ccc(F)c(Cl)c2)[nH]1)[C@H]1CC[C@@H](c2ccnc3ccc(F)cc32)CC1 [Example 11, 4-((1S,4s)-4-((R)-1-(5-(3-chloro-4-fluorophenyl)-4H-1,2,4-triazol-3-yl)ethyl)cyclohexyl)-6-fluoroquinoline] | 162 | 86
2 | CC(C)Oc1ccc(-c2nnc([C@H](C)[C@H]3CC[C@@H](c4ccnc5ccc(F)cc54)CC3)[nH]2)cc1 [Example 12, 6-fluoro-4-((1S,4s)-4-((R)-1-(5-(4-isopropoxyphenyl)-4H-1,2,4-triazol-3-yl)ethyl)cyclohexyl)quinoline] | 39 | 22.5
3 | C[C@@H](c1nnc(-c2ccccc2)[nH]1)[C@H]1CC[C@@H](c2ccnc3ccc(F)cc32)CC1 [Example 13, 6-fluoro-4-((1S,4s)-4-((R)-1-(5-phenyl-4H-1,2,4-triazol-3-yl)ethyl)cyclohexyl)quinoline] | 118 | 48.2
4 | C[C@@H](c1nnc(-c2cccc(F)c2)[nH]1)[C@H]1CC[C@@H](c2ccnc3ccc(F)cc32)CC1 [Example 14, 6-fluoro-4-((1S,4s)-4-((R)-1-(5-(3-fluorophenyl)-4H-1,2,4-triazol-3-yl)ethyl)cyclohexyl)quinoline] | 72.2 | 36.2
5 | CC(C)Oc1ccc(-c2nnc([C@H](C)[C@H]3CC[C@@H](c4ccnc5ccc(F)cc54)CC3)o2)cc1 [Example 18, 2-((R)-1-((1s,4S)-4-(6-fluoroquinolin-4-yl)cyclohexyl)ethyl)-5-(4-isopropoxyphenyl)-1,3,4-oxadiazole] | 55.5 | 66.3
6 | C[C@@H](c1nnc(-c2ccccc2)o1)[C@H]1CC[C@@H](c2ccnc3ccc(F)cc32)CC1 [Example 19, 2-((R)-1-((1s,4S)-4-(6-fluoroquinolin-4-yl)cyclohexyl)ethyl)-5-phenyl-1,3,4-oxadiazole] | 5.5 | 13.8
7 | C[C@@H](c1nnc(Nc2ccccc2)[nH]1)[C@H]1CC[C@@H](c2ccnc3ccc(F)cc32)CC1 [Example 22, 5-((R)-1-((1s,4s)-4-(6-Fluoroquinolin-4-yl)cyclohexyl)ethyl)-N-phenyl-4H-1,2,4-triazol-3-amine] | 8.8 | 5.9
8 | Cc1cnc(-c2nnc(N[C@H](C)[C@H]3CC[C@@H](c4ccnc5ccc(F)cc54)CC3)o2)s1 [Example 30, N-((R)-1-((1s,4S)-4-(6-fluoroquinolin-4-yl)cyclohexyl)ethyl)-5-(5-methylthiazol-2-yl)-1,3,4 oxadiazol-2-amine] | 13.3 | 10.6

The remaining lines, values ahead:

Row | IC50 [1] [nM] | IC50 (human IDO1) [nM] | Structure (SMILES)
9 | 16.7 | 42.3 | C[C@@H](c1nnc(-c2ccc(F)cc2)[nH]1)[C@H]1CC[C@@H](c2ccnc3ccc(F)cc32)CC1 [Example 3, 6-Fluoro-4-((1s,4s)-4-((R)-1-(5-(4-fluorophenyl)-4H-1,2,4-triazol-3-yl)ethyl)cyclohexyl)quinoline]
10 | 35 | 15.1 | C[C@@H](c1nnc(-c2ccc(Cl)cc2)s1)[C@H]1CC[C@@H](c2ccnc3ccc(F)cc32)CC1 [Example 5, 2-(4-Chlorophenyl)-5-((R)-1-((1s,4S)-4-(6-fluoroquinolin-4-yl)cyclohexyl)ethyl)-1,3,4-thiadiazole]
11 | 5.4 | 5.5 | C[C@@H](Nc1nnc(-c2ccc(Cl)cc2)s1)[C@H]1CC[C@@H](c2ccnc3ccc(F)cc32)CC1 [Example 24, 5-(4-Chlorophenyl)-N—((R)-1-((1s,4S)-4-(6-fluoroquinolin-4-yl)cyclohexyl)ethyl)-1,3,4-thiadiazol-2-amine]
12 | 55.3 | 23.5 | C[C@@H](Nc1nnc(-c2ccc(C#N)cc2)o1)[C@H]1CC[C@@H](c2ccnc3ccc(F)cc32)CC1 [Example 29, 4-(5-((R)-1-((1s,4S)-4-(6-fluoroquinolin-4-yl)cyclohexyl)ethylamino)-1,3,4-oxadiazol-2-yl)benzonitrile]
13 | 390 | 23.1 | C[C@@H](Nc1nnc(-c2ccc(C#N)cc2)[nH]1)[C@H]1CC[C@@H](c2ccnc3ccc(F)cc32)CC1 [Example 41, 4-(5-((R)-1-((1s,4S)-4-(6-Fluoroquinolin-4-yl)cyclohexyl)ethylamino)-4H-1,2,4-triazol-3-yl)benzonitrile]
14 | 10.5 | 12.4 | C[C@@H](c1ncc(-c2ccc(Cl)cc2)[nH]1)[C@H]1CC[C@@H](c2ccnc3ccc(F)cc32)CC1 [Example 44, 4-((1s,4s)-4-((R)-1-(5-(4-Chlorophenyl)-1H-imidazol-2-yl)ethyl)cyclohexyl)-6-fluoroquinoline]
